{"source": "PubChem BioAssay (NCI)", "assay_in_all_cases": "NCI tumour cell line growth inhibition, 48 h", "key": {"786-0 renal": {"tested_on": "786-0 renal"}, "SF-268 CNS": {"tested_on": "SF-268 CNS"}, "U251 CNS": {"tested_on": "U251 CNS"}, "A549 NSCLC": {"tested_on": "A549 NSCLC"}, "MDA-MB-435": {"tested_on": "MDA-MB-435"}, "RXF 393 renal": {"tested_on": "RXF 393 renal"}, "MDA-MB-231 breast": {"tested_on": "MDA-MB-231 breast"}, "HT29 colon": {"tested_on": "HT29 colon"}, "SNB-75 CNS": {"tested_on": "SNB-75 CNS"}, "MDA-N": {"tested_on": "MDA-N"}, "OVCAR-8 ovarian": {"tested_on": "OVCAR-8 ovarian"}, "ACHN renal": {"tested_on": "ACHN renal"}, "SK-MEL-5 melanoma": {"tested_on": "SK-MEL-5 melanoma"}, "HCT-116 colon": {"tested_on": "HCT-116 colon"}, "SF-539 CNS": {"tested_on": "SF-539 CNS"}, "MOLT-4 leukemia": {"tested_on": "MOLT-4 leukemia"}, "MCF7 breast": {"tested_on": "MCF7 breast"}, "UACC-62 melanoma": {"tested_on": "UACC-62 melanoma"}, "HL-60(TB) leukemia": {"tested_on": "HL-60(TB) leukemia"}, "UO-31 renal": {"tested_on": "UO-31 renal"}, "SW-620 colon": {"tested_on": "SW-620 colon"}, "PC-3 prostate": {"tested_on": "PC-3 prostate"}, "CCRF-CEM leukemia": {"tested_on": "CCRF-CEM leukemia"}, "SR leukemia": {"tested_on": "SR leukemia"}, "NCI-H23 lung": {"tested_on": "NCI-H23 lung"}, "RPMI-8226 leukemia": {"tested_on": "RPMI-8226 leukemia"}, "IGROV1 ovarian": {"tested_on": "IGROV1 ovarian"}, "OVCAR-3 ovarian": {"tested_on": "OVCAR-3 ovarian"}, "SK-MEL-28 melanoma": {"tested_on": "SK-MEL-28 melanoma"}, "SK-MEL-2 melanoma": {"tested_on": "SK-MEL-2 melanoma"}, "NCI-H522 lung": {"tested_on": "NCI-H522 lung"}, "HS 578T breast": {"tested_on": "HS 578T breast"}, "SN12C renal": {"tested_on": "SN12C renal"}, "NCI-H460 lung": {"tested_on": "NCI-H460 lung"}, "CAKI-1 renal": {"tested_on": "CAKI-1 renal"}, "EKVX NSCLC": {"tested_on": "EKVX NSCLC"}, "HCT-15 colon": {"tested_on": "HCT-15 colon"}, "OVCAR-5 ovarian": {"tested_on": "OVCAR-5 ovarian"}, "MALME-3M melanoma": {"tested_on": "MALME-3M melanoma"}, "SK-OV-3 ovarian": {"tested_on": "SK-OV-3 ovarian"}, "KM12 colon": {"tested_on": "KM12 colon"}, "A498 renal": {"tested_on": "A498 renal"}, "SNB-19 CNS": {"tested_on": "SNB-19 CNS"}, "K-562 leukemia": {"tested_on": "K-562 leukemia"}, "NCI/ADR-RES ovarian": {"tested_on": "NCI/ADR-RES ovarian"}, "HCC-2998 colon": {"tested_on": "HCC-2998 colon"}, "NCI-H226 lung": {"tested_on": "NCI-H226 lung"}, "DU-145 prostate": {"tested_on": "DU-145 prostate"}, "COLO 205 colon": {"tested_on": "COLO 205 colon"}, "LOX IMVI melanoma": {"tested_on": "LOX IMVI melanoma"}, "OVCAR-4 ovarian": {"tested_on": "OVCAR-4 ovarian"}, "M14 melanoma": {"tested_on": "M14 melanoma"}, "T-47D breast": {"tested_on": "T-47D breast"}, "HOP-92 NSCLC": {"tested_on": "HOP-92 NSCLC"}, "SF-295 CNS": {"tested_on": "SF-295 CNS"}, "UACC-257 melanoma": {"tested_on": "UACC-257 melanoma"}, "BT-549 breast": {"tested_on": "BT-549 breast"}}, "note": "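Five concentrations, 48 hours, 96-well plates. TGI marks complete inhibition of growth.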"}
{"smiles": "O=C(Nc1cccc(NC(=O)C(=O)C2CCC3=C(Sc4ccccc4N3)C2=O)n1)C(=O)C1CCC2=C(Sc3ccccc3N2)C1=O", "note": "(configuration not stated)", "values": [{"measurement": "TGI", "setting": "786-0 renal", "value": "> 100", "unit": "µM"}, {"measurement": "TGI", "setting": "SF-268 CNS", "value": "> 100", "unit": "µM"}, {"measurement": "TGI", "setting": "U251 CNS", "value": "> 100", "unit": "µM"}, {"measurement": "TGI", "setting": "A549 NSCLC", "value": "> 100", "unit": "µM"}, {"measurement": "TGI", "setting": "MDA-MB-435", "value": "> 100", "unit": "µM"}, {"measurement": "TGI", "setting": "RXF 393 renal", "value": "> 100", "unit": "µM"}, {"measurement": "TGI", "setting": "MDA-MB-231 breast", "value": "> 100", "unit": "µM"}, {"measurement": "TGI", "setting": "HT29 colon", "value": "> 100", "unit": "µM"}, {"measurement": "TGI", "setting": "SNB-75 CNS", "value": 70.2, "unit": "µM"}, {"measurement": "TGI", "setting": "MDA-N", "value": "> 100", "unit": "µM"}, {"measurement": "TGI", "setting": "OVCAR-8 ovarian", "value": "> 100", "unit": "µM"}, {"measurement": "TGI", "setting": "ACHN renal", "value": "> 100", "unit": "µM"}, {"measurement": "TGI", "setting": "SK-MEL-5 melanoma", "value": "> 100", "unit": "µM"}, {"measurement": "TGI", "setting": "HCT-116 colon", "value": "> 100", "unit": "µM"}, {"measurement": "TGI", "setting": "SF-539 CNS", "value": 55.1, "unit": "µM"}, {"measurement": "TGI", "setting": "MOLT-4 leukemia", "value": "> 100", "unit": "µM"}, {"measurement": "TGI", "setting": "MCF7 breast", "value": "> 100", "unit": "µM"}, {"measurement": "TGI", "setting": "UACC-62 melanoma", "value": "> 100", "unit": "µM"}, {"measurement": "TGI", "setting": "HL-60(TB) leukemia", "value": "> 100", "unit": "µM"}, {"measurement": "TGI", "setting": "UO-31 renal", "value": "> 100", "unit": "µM"}, {"measurement": "TGI", "setting": "SW-620 colon", "value": "> 100", "unit": "µM"}, {"measurement": "TGI", "setting": "PC-3 prostate", "value": "> 100", "unit": "µM"}, {"measurement": "TGI", "setting": "CCRF-CEM leukemia", "value": "> 100", "unit": "µM"}, {"measurement": "TGI", "setting": "SR leukemia", "value": "> 100", "unit": "µM"}, {"measurement": "TGI", "setting": "NCI-H23 lung", "value": "> 100", "unit": "µM"}, {"measurement": "TGI", "setting": "RPMI-8226 leukemia", "value": "> 100", "unit": "µM"}, {"measurement": "TGI", "setting": "IGROV1 ovarian", "value": "> 100", "unit": "µM"}, {"measurement": "TGI", "setting": "OVCAR-3 ovarian", "value": "> 100", "unit": "µM"}, {"measurement": "TGI", "setting": "SK-MEL-28 melanoma", "value": "> 100", "unit": "µM"}, {"measurement": "TGI", "setting": "SK-MEL-2 melanoma", "value": "> 100", "unit": "µM"}, {"measurement": "TGI", "setting": "NCI-H522 lung", "value": "> 100", "unit": "µM"}, {"measurement": "TGI", "setting": "HS 578T breast", "value": "> 100", "unit": "µM"}, {"measurement": "TGI", "setting": "SN12C renal", "value": "> 100", "unit": "µM"}, {"measurement": "TGI", "setting": "NCI-H460 lung", "value": "> 100", "unit": "µM"}, {"measurement": "TGI", "setting": "CAKI-1 renal", "value": "> 100", "unit": "µM"}, {"measurement": "TGI", "setting": "EKVX NSCLC", "value": "> 100", "unit": "µM"}, {"measurement": "TGI", "setting": "HCT-15 colon", "value": "> 100", "unit": "µM"}, {"measurement": "TGI", "setting": "OVCAR-5 ovarian", "value": "> 100", "unit": "µM"}, {"measurement": "TGI", "setting": "MALME-3M melanoma", "value": "> 100", "unit": "µM"}, {"measurement": "TGI", "setting": "SK-OV-3 ovarian", "value": "> 100", "unit": "µM"}, {"measurement": "TGI", "setting": "KM12 colon", "value": "> 100", "unit": "µM"}, {"measurement": "TGI", "setting": "A498 renal", "value": "> 100", "unit": "µM"}, {"measurement": "TGI", "setting": "SNB-19 CNS", "value": "> 100", "unit": "µM"}, {"measurement": "TGI", "setting": "K-562 leukemia", "value": "> 100", "unit": "µM"}, {"measurement": "TGI", "setting": "NCI/ADR-RES ovarian", "value": "> 100", "unit": "µM"}, {"measurement": "TGI", "setting": "HCC-2998 colon", "value": "> 100", "unit": "µM"}, {"measurement": "TGI", "setting": "NCI-H226 lung", "value": "> 100", "unit": "µM"}, {"measurement": "TGI", "setting": "DU-145 prostate", "value": "> 100", "unit": "µM"}, {"measurement": "TGI", "setting": "COLO 205 colon", "value": "> 100", "unit": "µM"}, {"measurement": "TGI", "setting": "LOX IMVI melanoma", "value": "> 100", "unit": "µM"}, {"measurement": "TGI", "setting": "OVCAR-4 ovarian", "value": 71.7, "unit": "µM"}, {"measurement": "TGI", "setting": "M14 melanoma", "value": "> 100", "unit": "µM"}, {"measurement": "TGI", "setting": "T-47D breast", "value": "> 100", "unit": "µM"}, {"measurement": "TGI", "setting": "HOP-92 NSCLC", "value": "> 100", "unit": "µM"}, {"measurement": "TGI", "setting": "SF-295 CNS", "value": "> 100", "unit": "µM"}, {"measurement": "TGI", "setting": "UACC-257 melanoma", "value": "> 100", "unit": "µM"}, {"measurement": "TGI", "setting": "BT-549 breast", "value": "> 100", "unit": "µM"}]}
